Experimental data published in patent publication US20070049625A1, “EP2 receptor agonists for treating glaucoma” (Allergan, Inc., priority 2005, published 2007).

What was measured:
Format in all cases: in vivo
[1] = system: Cynomolgus monkeys (Macaca fascicularis); experiment: Intraocular pressure in laser-induced ocular hypertensive monkeys; settings: single topical dose, laser-treated ocular hypertensive eye, IOP at 2, 4, 6 and 24 hours
Method: Cynomolgus monkeys (Macaca fascicularis) were used for the intraocular pressure studies. Each animal was unilaterally laser-treated by circumferential laser photocoagulation to induce ocular hypertension in one eye. Conscious female animals were trained sit in custom design chairs and to accept applanation pneumatonometry. The drug was administered topically to one eye using a dropper bottle to deliver approximately a 35 μl volume, the other eye received vehicle (1% polysorbate 80 in 5 mM Tris HCl) as a control. Proparacaine at 0.25% was used for corneal anesthesia during tonometry. Intraocular pressure was determined just before drug administration and at 2, 4, 6, and 24 hours.

[2] = system: Beagle dogs; experiment: Intraocular pressure in conscious dogs by applanation pneumatonometry; settings: topical to one eye, single daily dose over a 5 day period; IOP before and 2, 4, 6 hours after dosing; vehicle in other eye
Method: (§1) Measurement of intraocular pressure studies in dogs involved applanation pneumatonometry performed in Beagle dogs of both sexes. The animals remained conscious throughout the study and were gently restrained by hand. The drug was administered topically to one eye using a dropper bottle to deliver approximately a 35 μl volume, the other eye received vehicle (1% polysorbate 80 in 5 mM Tris HCI) as a control. Proparacaine at 0.25% was used for corneal anesthesia during tonometry. Intraocular pressure was determined just before drug administration and at 2, 4, 6 hours thereafter on each day of the 5 day study. Measurement of ocular surface hyperemia was performed immediately before each of the intraocular pressure readings. Ocular surface hyperemia grading was semi-quantitative and assessed according to a 5 point scoring scale used for clinical evaluations: 0=none; 0.5=trace; 1=mild; 2=moderate; and 3=severe.

[3] = system: Beagle dogs; experiment: Ocular surface hyperemia grading in dogs; settings: topical to one eye, dosing over a 5 day period; 5 point scale 0=none, 0.5=trace, 1=mild, 2=moderate, 3=severe
Method: as §1

| Structure (SMILES) | effect on the IOP of monkeys ([1]; 0.1% w/v solution) | effect on the IOP of dogs [2] | ocular surface hyperemia of dogs [3] | effect on the IOP of monkeys ([1]; 0.01% w/v solution) | effect on the IOP of monkeys ([1]; 0.03% w/v solution) |
| --- | --- | --- | --- | --- | --- |
| CC(C)OC(=O)COc1cccc(CN(Cc2ccc(C(C)(C)C)cc2)S(=O)(=O)c2cccnc2)c1 [(3-{[(4-tert-butyl-benzyl)-(pyridine-3-sulfonyl)-amino]-methyl}-phenoxy)-acetic acid; isopropyl ester] | lowers the elevated IOP over 24 hours almost to the level of the control normotensive eye | effective for reducing IOP of the dogs | minimal ocular surface hyperemia | – | – |
| CC(C)(C)c1ccc(CN(Cc2cccc(OCC(=O)O)c2)S(=O)(=O)c2cccnc2)cc1 [(3-{[(4-tert-butyl-benzyl)-(pyridine-3-sulfonyl)-amino]-methyl}-phenoxy)-acetic acid] | lowers the elevated IOP over 24 hours, almost to the level of the control normotensive eye | effective for reducing IOP of the dogs | mild ocular surface hyperemia that diminishes over time | lowers the elevated IOP over 24 hours | lowers the elevated IOP over 24 hours, almost to the level of the control normotensive eye |
